Data reported in article PMC5198778 (MedChemComm, 2016).
Each block holds one molecule with its values, some of them ahead of it.

How the values were obtained:
other PRMTs = assay: Activity against other PRMTs; type: biochemical; settings: PRMTs other than CARM1, PRMT6 and PRMT8
PRMT8 = PRMT8 (Homo sapiens, UniProt Q9NR22); assay: PRMT8 biochemical inhibition assay
CARM1 = molecular target: T1, CARM1 (Homo sapiens, UniProt Q86X55); assay: Mechanism of action; type: biochemical; settings: IC50 against CARM1 with increasing peptide substrate or SAM concentrations
T1 sequence (Q86X55 1-608): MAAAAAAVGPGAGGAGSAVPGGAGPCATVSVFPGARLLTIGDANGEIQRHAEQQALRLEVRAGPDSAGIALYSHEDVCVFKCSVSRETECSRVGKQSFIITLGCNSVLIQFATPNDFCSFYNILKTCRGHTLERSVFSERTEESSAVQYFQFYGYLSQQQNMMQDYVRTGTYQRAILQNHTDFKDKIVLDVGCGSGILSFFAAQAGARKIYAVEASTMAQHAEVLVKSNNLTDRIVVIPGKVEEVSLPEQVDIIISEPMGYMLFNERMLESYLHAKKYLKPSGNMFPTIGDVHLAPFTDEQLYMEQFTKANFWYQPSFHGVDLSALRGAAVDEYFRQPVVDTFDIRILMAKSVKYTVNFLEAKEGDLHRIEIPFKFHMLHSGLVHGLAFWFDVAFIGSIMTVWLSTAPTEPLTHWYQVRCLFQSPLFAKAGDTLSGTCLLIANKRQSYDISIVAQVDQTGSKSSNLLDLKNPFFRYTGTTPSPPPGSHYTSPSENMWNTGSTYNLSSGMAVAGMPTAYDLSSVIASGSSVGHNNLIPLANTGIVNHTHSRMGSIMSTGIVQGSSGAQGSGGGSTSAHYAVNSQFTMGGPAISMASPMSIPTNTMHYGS

all type I PRMTs = settings: cited from earlier work
[1] = system: type II and type III PRMTs as well as other methyltransferases; settings: cited from earlier work

Chain of PRMT8 (Q9NR22 whole entry, species assumed): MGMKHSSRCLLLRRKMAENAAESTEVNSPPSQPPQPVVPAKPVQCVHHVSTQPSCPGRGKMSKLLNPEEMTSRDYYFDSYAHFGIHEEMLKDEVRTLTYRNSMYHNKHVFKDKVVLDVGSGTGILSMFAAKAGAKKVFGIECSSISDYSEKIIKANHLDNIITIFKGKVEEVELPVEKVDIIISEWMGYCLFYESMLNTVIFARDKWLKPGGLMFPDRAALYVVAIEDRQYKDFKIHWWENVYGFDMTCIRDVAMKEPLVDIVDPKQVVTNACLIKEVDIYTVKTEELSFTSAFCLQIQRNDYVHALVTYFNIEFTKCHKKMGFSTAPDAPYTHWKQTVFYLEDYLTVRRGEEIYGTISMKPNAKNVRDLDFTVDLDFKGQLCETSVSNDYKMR

- IC50 (PRMT8): 1.2 µM
Structure (SMILES): CNCCN1CC(OCc2cccc(OC(F)(F)F)c2)C1 [Compound 6]
- activity against other PRMTs (other PRMTs): inactive

- mechanism of action versus cofactor SAM and peptide substrate (CARM1): noncompetitive
Structure (SMILES): CNCCN1CCC(NCc2cccc(Br)c2)CC1 [Compound 9]

Structure (SMILES): CC(C)Oc1ccc(-c2c[nH]cc2CN(C)CCN)cc1 [MS023]
- activity against all type I PRMTs (all type I PRMTs): potent
- activity against type II and type III PRMTs and other methyltransferases [1]: inactive
